This assay has as its target T1, μ-opiate receptor (Rattus norvegicus, UniProt P33535).
T1 construct: homogenate of rat brain without cerebellum, pons and medulla oblongata of male Wistar rats; from tissue; host or cells: rat brain (without cerebellum, pons and medulla oblongata), male Wistar rats, membrane homogenate
Briefly: μ-Opiate receptor binding investigations on rat brain membrane homogenates with tritiated naloxone. Particulars: 10 μM compound; rat brain membrane homogenate (male Wistar rats); 1 nmol/l tritiated naloxone as radioactive ligand; read-out: μ-affinity % inhibition 10 μM. The protocol: μ-Opiate Receptor Binding Investigations
Investigations to determine the affinity of the compounds of Formula I according to the invention for the μ-opiate receptor were carried out on brain membrane homogenates (homogenate of rat brain without cerebellum, pons and medulla oblongata of male Wistar rats).
For this purpose, the respective freshly prepared rat brain was homogenized in 50 mmol/l tris-HCl (pH 7.4) with ice cooling and was centrifuged for 10 minutes at 5,000 g and 4° C. After decanting and rejection of the supernatant, retrieval and homogenisation of the membrane sediment in 50 mmol/l tris-HCl (pH 7.4), the homogenate was then centrifuged for 20 minutes at 20,000 g and 4° C. This washing stage was repeated several times. The supernatant was then decanted and the membrane sediment homogenized in cold 50 mmol/l tris-HCl, 20% glycerol (w/v), 0.01% Bactitracin (w/v) (pH 7.4) and frozen in aliquots until testing. To test receptor binding, the aliquots were thawed and diluted 1:10 with the binding test buffer.
In the binding test, a 50 mmol/l tris-HCl, 5 mmol/l MgCl (pH 7.4) was used as buffer and 1 nmol/l tritiated naloxone as radioactive ligand.
T1 sequence (P33535 whole entry): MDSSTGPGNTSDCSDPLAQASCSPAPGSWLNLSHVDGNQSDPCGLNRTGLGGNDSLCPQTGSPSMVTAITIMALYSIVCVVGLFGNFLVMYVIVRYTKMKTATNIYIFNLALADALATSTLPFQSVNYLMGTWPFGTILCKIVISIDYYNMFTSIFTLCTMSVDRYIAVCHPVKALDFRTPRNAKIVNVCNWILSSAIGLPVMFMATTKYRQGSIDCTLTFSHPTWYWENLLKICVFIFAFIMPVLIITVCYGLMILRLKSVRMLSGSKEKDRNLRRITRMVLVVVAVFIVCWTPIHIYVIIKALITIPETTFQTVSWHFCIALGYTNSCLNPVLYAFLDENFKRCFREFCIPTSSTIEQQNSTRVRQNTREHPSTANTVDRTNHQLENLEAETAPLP
A word on the inhibition: it is the change of the read-out against control, counted positive when it falls. `CC(=O)[n+]1c(-c2ccccc2)c(NC(C)(C)C)n2ccsc21` [Example 4, 7-acetyl-5-tert-butylamino-6-phenyl-imidazo[2,1-b]-thiazol-7-ium chloride]: the inhibition at 10 µM came to 90%.

Take `CC(=O)[n+]1c(-c2ccccc2)c(NC2CCCCC2)n2c3ccccc3ccc21` [Example 5, 3-acetyl-1-cyclohexylamino-2-phenyl-imidazo[1,2-a]-quinolin-3-ium chloride]: the inhibition at 10 µM came to 79%.

Turning to `CC(=O)[n+]1c(-c2ccccc2)c(NC2CCCCC2)n2cccnc21` [Example 6, 1-acetyl-3-cyclohexylamino-2-phenyl-imidazo[1,2-a]-pyrimidin-1-ium chloride], the inhibition at 10 µM stood at 53%.

As for `CC(=O)[n+]1c(C)c(NC2CCCCC2)n2cccc(OCc3ccccc3)c21` [Example 7, 1-acetyl-8-benzyloxy-3-cyclohexylamino-2-methyl-imidazo[1,2-a]pyridin-1-ium chloride], the inhibition at 10 µM came to 91%.

Consider `CC(=O)[n+]1c(C)c(NC(C)(C)C)n2cccc(OCc3ccccc3)c21` [Example 8, 1-acetyl-8-benzyloxy-3-tert-butylamino-2-methyl-imidazo[1,2-a]pyridin-1-ium chloride], for which the inhibition at 10 µM was 98%.

The values above are taken from patent publication US7153873B2, “Salts of bicyclic, N-acylated imidazo-3-amines and imidazo-5-amines” (Gruenenthal GmbH, priority 2000, dated 2006).
